The text below walks through data of ChEMBL document CHEMBL3272271, “Folate antagonists. 13. 2,4-Diamino-6-](alpha,alpha,alpha-trifluoro-m-tolyl)thio]quinazoline and related 2,4-diamino-6-[(phenyl- and naphthyl)thio]quinazolines, a unique class of antimetabolites with extraordinary antimalarial and antibacterial effects” (J Med Chem, 1978).

In series [1] the test system is Plasmodium gallinaceum. The series is described as follows: Antimalarial activity against sporozoite-induced Plasmodium gallinaceum infected in white leghorn chicken assessed as increase in mean survival days of host at 240 mg/kg, sc administered 72 hrs after infection relative to control. The conditions noted are these: route subcutaneous. Format: functional.
Series [2] concerns Plasmodium berghei. Nature of the series: Antimalarial activity against Plasmodium berghei infected in mouse assessed as increase in mean survival days of host at 80 mg/kg, sc administered 72 hrs after infection relative to control. Format: functional. Conditions: route subcutaneous.
Series [3] concerns Plasmodium berghei. Nature of the series: Antimalarial activity against trophozoite-induced Plasmodium berghei infected in mouse assessed as daily dose required to suppression of 90% parasite infection administered with diet for 6 days. It is filed as functional.
Series [4] relates to Plasmodium gallinaceum. The series is described as follows: Antimalarial activity against sporozoite-induced Plasmodium gallinaceum infected in white leghorn chicken assessed as increase in mean survival days of host at 30 mg/kg, sc administered 72 hrs after infection relative to control. Format: functional. The conditions noted are these: route subcutaneous.
In series [5] the test system is Plasmodium berghei. The series is described as follows: Antimalarial activity against Plasmodium berghei infected in mouse assessed as increase in mean survival days of host at 20 mg/kg, sc administered 72 hrs after infection relative to control. Format: functional. Conditions: route subcutaneous.
Series [6] concerns Plasmodium berghei. Nature of the series: Antimalarial activity against Plasmodium berghei infected in mouse assessed as increase in mean survival days of host at 10 mg/kg, sc administered 72 hrs after infection relative to control. Format: functional. Conditions: route subcutaneous.
The test system of series [7] is Plasmodium gallinaceum. Nature of the series: Antimalarial activity against sporozoite-induced Plasmodium gallinaceum infected in white leghorn chicken assessed as increase in mean survival days of host at 60 mg/kg, sc administered 72 hrs after infection relative to control. It is filed as functional. The conditions noted are these: route subcutaneous.
For series [8], the system named is Plasmodium berghei. The series is described as follows: Ratio of quinine hydrochloride SD90 to compound SD90 for trophozoite-induced Plasmodium berghei infected in mouse assessed as daily dose required to suppression of 90% parasite infection administered with diet for 6 days. Format: functional.
A further series concerns Gallus gallus. Nature of the series: Toxicity in sporozoite-induced Plasmodium gallinaceum infected white leghorn chicken assessed as mortality at 480 mg/kg, sc administered 72 hrs after infection measured up to 6 days. The conditions noted are these: in vivo. Format: organism-based. More on the design: dose 480 mg/kg, route subcutaneous.
Series [9] concerns Plasmodium gallinaceum. The series is described as follows: Antimalarial activity against sporozoite-induced Plasmodium gallinaceum infected in white leghorn chicken assessed as increase in mean survival days of host at 15 mg/kg, sc administered 72 hrs after infection relative to control. Conditions: route subcutaneous. It is filed as functional.
Series [10] relates to Plasmodium gallinaceum. The series is described as follows: Antimalarial activity against sporozoite-induced Plasmodium gallinaceum infected in white leghorn chicken assessed as increase in mean survival days of host at 7.5 mg/kg, sc administered 72 hrs after infection relative to control. It is filed as functional. The conditions noted are these: route subcutaneous.
For series [11], the system named is Plasmodium berghei. The series is described as follows: Antimalarial activity against Plasmodium berghei infected in mouse assessed as increase in mean survival days of host at 40 mg/kg, sc administered 72 hrs after infection relative to control. It is filed as functional. The conditions noted are these: route subcutaneous.
Series [12] concerns Plasmodium gallinaceum. The series is described as follows: Antimalarial activity against sporozoite-induced Plasmodium gallinaceum infected in white leghorn chicken assessed as increase in mean survival days of host at 120 mg/kg, sc administered 72 hrs after infection relative to control. Format: functional. The conditions noted are these: route subcutaneous.
In series [13] the test system is Plasmodium berghei. The series is described as follows: Antimalarial activity against Plasmodium berghei infected in mouse assessed as increase in mean survival days of host at 160 mg/kg, sc administered 72 hrs after infection relative to control. It is filed as functional. Conditions: route subcutaneous.

Turning to `CC(=O)O.Nc1nc(N)c2cc(NCc3ccc(Cl)c(Cl)c3)ccc2n1`, the MST in the series with Plasmodium gallinaceum [1] is 0 days; in the series on Plasmodium berghei [2], 12.9 days; in the series on Plasmodium gallinaceum [4], 0 days; with Plasmodium berghei [5] it was 2.5 days; in the series on Plasmodium berghei [6] it was 0.7 days; in the series on Plasmodium gallinaceum [7] it was 0 days. In addition, the MST with Plasmodium gallinaceum [9] worked out at 3.1 days; in the series with Plasmodium gallinaceum [10] it was 2.3 days; in the series on Plasmodium berghei [11] it was 7.1 days; with Plasmodium gallinaceum [12], 0 days; with Plasmodium berghei [13] it was 9.9 days. Further, the SD90 with Plasmodium berghei [3] is recorded as 9.5 mg/kg/day. Moreover, in the series on Plasmodium berghei [8], the Ratio is recorded as 7.9. In addition, in the series on Gallus gallus, the Activity result is given as “Toxic”.
